The values below come from patent US5461057A, “Hydro-ethano-indeno-pyridines” (priority 1994, dated 1995).

By IC50 is commonly meant the concentration that gives 50% inhibition. By inhibition is commonly meant the drop in the measured response relative to a control, in per cent. In general, ED50 refers to the dose that gives a 50% effect, or the effect in half of the subjects. The % Inhibition is the change of the read-out against control, counted positive when it falls.

Data set [1] deals with LOX human melanoma cell adhesion to human fibronectin. As to the kind of experiment: LOX melanoma cell adhesion to fibronectin. In kind it is cell-based. Conditions: for IC50 / inhibition at 10 µM / inhibition at 50 µM: Homo sapiens, LOX; for IC50: read-out: LOX FN IC50; for inhibition at 10 µM: read-out: % Inhibition at 10 μM; for inhibition at 50 µM: read-out: % Inhibition at 50 μM. Summed up: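 Compound added to fibronectin-coated (140 ng/well), BSA-blocked wells before LOX cells (1×10^5/well, detached with urea/EDTA). Cells adhered 1 h at 37 °C, then washed. Adherent cells quantified by calcein AM fluorescence (485/530 nm); IC50 for adhesion inhibition.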

Data set [2] is described as follows: Calcein cytotoxicity assay. The class given is cell-based. To be noted: human, lox melanoma cells, calcein AM assay; for CC50 at 2 h: read-out: 2 Hr Tox LD50.
The target in another data set is ELAM-1 (Homo sapiens, UniProt P16581). As to the kind of experiment: cell-based. As for the experimental part:
Cell adhesion to ELAM-1 was measured essentially as described previously (Pal et al., J. Biomed. Res. 2: 53, 1992). Undifferentiated HL-60 leukemia cells were prelabelled for 30 minutes with 1 μM calcein AM in DPBS without calcium or magnesium, and the cells were washed twice with the same medium before addition to 96-well plates containing monolayers of mouse L cells (5×10^4 cells/well) transfected with cDNA for the adhesion molecule ELAM-1. Adhesion was allowed to proceed for 30 minutes at room temperature before washing and quantitation of the remaining fluorescent HL-60 cells as described above.
ELAM-1 (E-selectin) is a member of the selectin class of adhesion molecules.

The test system of data set [3] is LOX human melanoma cell adhesion to polylysine. Put plainly: LOX melanoma cell adhesion to polylysine. In kind it is cell-based. To be noted: read-out: Poly Lys IC50.
Data set [4] deals with histamine-induced dyspnea. As to the kind of experiment: Bronchodilator (in vivo) Guinea Pig Dyspnea. Conditions: oral, one hour before histamine challenge. Summed up: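 Fasted, unanesthetized guinea pigs (250-350 g) received the test drug orally one hour before exposure to an aerosolized 0.1% histamine solution. Onset of dyspnea was recorded, and data were expressed as number tested over number survived.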

Data set [5] concerns B16-F10 murine melanoma metastasis. As to the kind of experiment: In vivo experimental metastasis. On the set-up: species or system mouse (C57/black6). To be noted: 250 mpk. As for the experimental part:
C57/black6 female mice (6-7 weeks old) were randomized before any treatment into groups of 5 mice per treatment. Compounds of the invention were prepared as a fine suspension in 25% β-cyclodextran and administered i.p. in a volume of 0.2 ml per animal. Two hours after drug (or vehicle) injection, 0.2 ml of DPBS containing 1×10^5 B-16 F10 murine melanoma cells were injected i.v. into the tail vein. After 14 days, animals were sacrificed and lungs were removed. Metastatic lung colonies were counted by visual inspection.
*Pretreatment Time is the time between i.p. drug injection and i.v. tumor

In the next data set the test system is TBZ-induced ptosis. Put plainly: Effects on tetrabenazine (TBZ)-induced ptosis in mice. In kind it is in vivo, mouse. Conditions: for ED50: Mus musculus, po; for TBZ ED50: p.o. From the text:
Clinically active antidepressant drugs are known to block TBZ-induced ptosis in mice (See Psychosomatic Medicine, Nodine and Moyer, Eds. Lea and Febiger, Philadelphia, 1962, pp 683-90, which is hereby incorporated by reference). Activity in this test is used to predict anti-depressant activity in man.
The procedure for the TBZ-Induced Ptosis Test in Mice is set forth in Psychosomatic Medicine, Nodine and Moyer, Eds. Lea and Febiger, which is hereby incorporated by reference and in PCT/US91/06705, filed 20 Sep. 1991, which is mentioned above.
(§1) The results for this test are given below as ED50 's in the units of mg/kg.
TBZ refers to the test of effects on tetrabenazine induced ptosis in mice, p.o.;

In data set [6] the test system is acetic acid-induced writhing. Put plainly: Acetic Acid Writhing Test in Mice. The class given is in vivo, mouse. Conditions: for ED50: Mus musculus, po, read-out: WRITH ED50. From the text: The blockade of writhing induced by the intraperitoneal injection of acetic acid is an established experimental animal model for the screening of antinociceptive drugs (drugs which prevent the appreciation or transmission of pain sensations).
The procedure for the Acetic Acid Writhing Test in Mice is set forth in Hendershot et al, J. Pharmacol. Exp. Therap. 125:237, (1959); Koster et al., Fed. Proc. 18:412, (1959); and international application PCT/US91/06705, filed 20 Sep. 1991, which are hereby incorporated by reference.
The results for this test are given below in the units of mg/kg which is also abbreviated in this specification as mpk. The results for this test are given as effective doses (ED50 's).
(In writhing tests, fewer writhes than in controls are read as antinociception.)

The test system of data set [7] is discrete trial avoidance behavior. As to the kind of experiment: Conditioned avoidance suppression in rats. The class given is in vivo, rat. To be noted: for minimal effective dose: Rattus norvegicus, read-out: CAR minimum effective dose (MED). From the text: See Ann. N.Y. Acad. Sci. 66,740 (1957) which is hereby incorporated by reference. The procedure for carrying out this test is set forth in Int. J. Neuro-pharmacal., 5, 405-411 (1966) which is hereby incorporated by reference and in PCT/US91/06705, filed 20 Sep. 1991, which is mentioned above.
The results for this test are given below as minimum effecive doses (MED)in the units of mg/kg.
As used herein, CAR refers to the conditioned avoidance suppression test in rats;

Data set [8] has as its system muricidal (mouse-killing) behavior. Put plainly: Effects on muricidal behavior in rats. Conditions: for ED50: Rattus norvegicus, read-out: MUR ED50. In kind it is in vivo, rat.
Source text: Blockade of muricidal (mouse-killing) behavior in rats is used as a measure of evaluating the anti-depressant activity of drugs, and the procedure for carrying out this test is set forth in Int. J. Neuro-pharmacal., 5, 405-411 (1966) are hereby incorporated by reference, and in PCT/US91/06705, filed 20 Sep. 1991, which is mentioned above.
as §1
MUR refers to the test on the effects on muricidal behavior in rats;

A further data set relates to metrazole. As to the kind of experiment: Anti-metrazole test in mice. The class given is in vivo, mouse. Conditions: for ED50: Mus musculus, read-out: MTZ ED50. As for the experimental part: The anti-metrazole test in mice was carried out as described in Everett et al, J. Pharmacol. Exp. Therap. 81:402-407 (1944); which is hereby incorporated by reference.
The results for this test are given below as ED50's in the units of mg/kg.

For a further data set, the system named is pulmonary resistance. Put plainly: Pulmonary Resistance in the Anesthetized Rat. In kind it is in vivo. Conditions: 0.5 mpk, i.v., mean of 5 animals, % decrease in pre-drug baseline resistance. Summed up:
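Dialurethane-anesthetized rats (400-500 g) with tracheal and esophageal catheters; air flow and tracheal/esophageal pressures used to derive pulmonary resistance. Compounds given i.v. to 5 animals each; values are mean % decrease from pre-drug baseline resistance.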

Like-named read-outs stand apart in the source and are kept apart here.

Sequence of ELAM-1 (P16581 22-610): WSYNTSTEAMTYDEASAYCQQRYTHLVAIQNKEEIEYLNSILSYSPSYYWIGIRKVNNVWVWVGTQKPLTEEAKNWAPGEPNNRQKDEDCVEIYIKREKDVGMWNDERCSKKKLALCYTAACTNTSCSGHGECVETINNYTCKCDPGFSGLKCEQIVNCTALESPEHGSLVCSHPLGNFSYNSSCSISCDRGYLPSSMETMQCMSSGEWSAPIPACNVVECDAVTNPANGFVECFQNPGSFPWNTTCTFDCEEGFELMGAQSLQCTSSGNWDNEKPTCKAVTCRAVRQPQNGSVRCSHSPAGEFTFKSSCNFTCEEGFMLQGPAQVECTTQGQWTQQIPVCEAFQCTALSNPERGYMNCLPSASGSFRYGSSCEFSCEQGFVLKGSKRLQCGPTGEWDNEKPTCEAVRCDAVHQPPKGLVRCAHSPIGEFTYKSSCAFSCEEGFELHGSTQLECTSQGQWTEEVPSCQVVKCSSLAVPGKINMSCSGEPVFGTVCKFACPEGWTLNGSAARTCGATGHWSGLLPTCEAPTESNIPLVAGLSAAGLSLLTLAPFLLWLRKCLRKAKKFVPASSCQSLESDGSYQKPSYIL

For `CN1C2CCC1C1C(=C(c3ccc(Cl)cc3)c3cc(F)ccc31)C2` (stereo not shown) [Compound A], the IC50 in [1] (1 h) came out at 4.8 µM; at ELAM-1, 21.8 µM; in data set [3] it was 11.8 µM. Besides, in data set [1], the inhibition at 10 µM was determined as 81.1%. For the same compound, in data set [1], the inhibition at 50 µM was determined as 101%. In addition, in data set [2], the CC50 at 2 h is 17.4 µM. In addition, the CC50 at 6 h in data set [2] (6 hours, read-out: 6 Hr Tox LD50) is 5.9 µM. For the same compound, the DYSP survivors in data set [4] (100 mg/kg) was 2/3.

With `O=P1(N(CCCl)CCCl)NCCCO1` (stereo not shown) [Cytoxan, reference compound], the “effectiveness as positive control” value in data set [5] is recorded as “showed similar effectiveness”. In data set [5] (pretreatment time 30 min), the “% Inhibition of lung metastasis” value was 77.8% and the “Number of Lung Melanoma Colonies” value turned out to be 17.6 ± 4.2.

Consider `COc1ccc2c(c1)C(O)(c1ccccc1)C1CC3CCC(C21)N3C` (stereo not shown) [DDD], for which the ED50 in the data set on TBZ-induced ptosis is above 30 mg/kg; in [6], above 30 mg/kg; in data set [8], 3.8 mg/kg; in the data set on metrazole it was above 30 mg/kg. The minimal effective dose in [7] is above 25 mg/kg.

With `COc1ccc2c(c1)C(c1ccccc1)C1=C2C2CCC(C1)N2C` (stereo not shown) [EE], the ED50 (with TBZ-induced ptosis; in data set [6]; in the data set on metrazole) was above 30 mg/kg in each case. For the same compound, the minimal effective dose in data set [7] is above 25 mg/kg.

For `COc1ccc(C2(O)c3ccccc3C3C4CCC(CC32)N4C)cc1` (stereo not shown) [PP], the inhibition at 10 µM in data set [1] (10 μM) came out at 4.9%. For the same compound, the inhibition at 50 µM in data set [1] (50 μM) worked out at 21.9%. Besides, the ED50 in the data set on TBZ-induced ptosis was above 30 mg/kg; in data set [6] it was above 30 mg/kg; in data set [8] it was above 10 mg/kg; with metrazole it was above 30 mg/kg. Besides, the inhibition in vivo at 0.5 mg/kg in the data set with pulmonary resistance (Rattus norvegicus, iv, read-out: Pulmonary Resistance in Rats, % Inhibition) was 62%. In data set [7], the minimal effective dose is above 25 mg/kg. In addition, in data set [4] (Cavia porcellus, 1 h, 50 mg/kg, read-out: DYSP survivors (converted)), the responders at 50 mg/kg is 0%.

Take `CN1C2CCC1C1C(=C(c3ccccc3)c3ccccc31)C2` (stereo not shown) [T]: in data set [1] (10 μM), the “% Inhibition at 10 μM” value was found to be 2.2%. Moreover, the “% Inhibition at 50 μM” value in data set [1] (50 μM) is listed as 89.3%. Further, the IC50 in data set [1] (Table 4, 1 hour adhesion) came out at 19.5 µM; in data set [3] it was 115 µM. Also, the “TBZ ED50” value in the data set with TBZ-induced ptosis is 5.7 mg/kg. Moreover, the CC50 at 2 h in [2] is 135 µM. The ED50 is 17.3 mg/kg in data set [6], above 10 mg/kg in data set [8] and above 30 mg/kg in the data set with metrazole. Besides, in the data set on pulmonary resistance, the “Pulmonary Resistance in Rats, % Inhibition” value was determined as 46%. Also, in [7], the minimal effective dose is above 25 mg/kg. In addition, the DYSP survivors in data set [4] (50 mg/kg) is reported as 0/3; in [4] (100 mg/kg) it was 2/3.

On to `CN1C2CCC1C1C(=C(c3ccccc3)c3ccccc31)C2` (stereo not shown) [U], for which the “% Inhibition at 10 μM” value in data set [1] (10 μM) is listed as -18.7%. In addition, the “% Inhibition at 50 μM” value in data set [1] (50 μM) was found to be 21.0%. In the data set with TBZ-induced ptosis, the “TBZ ED50” value is listed as 1.3 mg/kg. In addition, the “WRITH ED50” value in [6] (p.o.) is recorded as above 30 mg/kg. Further, the “CAR minimum effective dose (MED)” value in data set [7] is listed as above 25 mg/kg. Moreover, in data set [8], the “MUR ED50” value stood at 14.1 mg/kg. In addition, the “MTZ ED50” value with metrazole is on record as above 30 mg/kg.
